In article PMC6683298, “Identifying potential novel drugs against Helicobacter pylori by targeting the essential response regulator HsrA” (Scientific Reports, 2019):

Biological target: T1, HsrA response regulator (HP1043) (Helicobacter pylori, UniProt O25684)
T1 construct: gene HP_1043; N-terminal 6xHis tag, removed with thrombin; 223 residues; symmetric dimer
T1 sequence (O25684 1-223): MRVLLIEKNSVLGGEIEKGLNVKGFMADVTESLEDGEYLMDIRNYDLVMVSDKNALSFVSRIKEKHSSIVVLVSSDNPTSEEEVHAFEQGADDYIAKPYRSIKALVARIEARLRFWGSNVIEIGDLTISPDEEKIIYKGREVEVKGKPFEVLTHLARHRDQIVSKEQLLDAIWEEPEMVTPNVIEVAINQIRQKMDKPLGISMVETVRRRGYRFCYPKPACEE
Assay: isothermal titration calorimetry
Type: binding
Conditions: read-out: ITC^a / Kd
From the text: isothermal titration calorimetry on HsrA response regulator (HP1043)

`O=c1cc(-c2ccc(O)cc2)oc2cc(O)cc(O)c12` [apigenin] and `O=c1cc(-c2ccccc2)oc2cc(O)cc(O)c12` [chrysin] are within 1.5-fold of each other in Kd: 20 µM for the first, 17 µM for the second.

`COc1ccc([C@@H]2CC(=O)c3c(O)cc(O)cc3O2)cc1O` [hesperetin] and `O=c1c(O)c(-c2ccc(O)cc2)oc2cc(O)cc(O)c12` [kaempferol] are within 1.5-fold of each other in Kd: 26 µM for the first, 33 µM for the second.
